Laboratory results published in patent US4843089A, “Antimycotic agent” (Bayer Aktiengesellschaft, priority 1984, dated 1989).

How the values were obtained:
[1] = tested on: dermatophytes, molds and yeasts; assay: Antimycotic in vitro activity, series dilution test (overall comparison with compound (B)); assay type: cell-based; settings: in words; versus compound (B) known from the prior art
Method: The in vitro tests were carried out in a series dilution test using germ inocular of on average 5×10^3 to 10^4 germs/ml of substrate. The nutrient medium used was (a) for dermatophytes and molds. Sabourand's milieu d'epreuve (b) for yeasts: meat extract/glucose broth. The incubation temperature was 28° C. to 37° C. and the incubation period was 24 to 96 hours for yeasts and 96 hours for dermatophytes and molds.

[2] = tested on: Trichophyton von mentagrophytes; assay: Antimicrobial in vivo activity (local), experimental trichophytosis in guinea pigs; settings: 0.1% strength solution, 1x daily
Candida = assay: Antimycotic in vivo activity (oral) on candidosis of mice; set-up: species or system mice (SPF-CF1); settings: in words, 25-100 mg/kg, versus compounds (A) and (B)
Method: Mice of the SPF-CF1 type were infected intravenously with 1-2×10^6 logarithmically growing Candida cells suspended in physiological saline solution. The animals were treated orally with in each case 25-100 mg of the products/kg of body weight one hour before and seven hours after infection. Untreated animals died 3 to 6 days after infection. The survival rate on the 6th day after infection was about 5% in the untreated control animals.

Row | Structure (SMILES) | antimycotic action in vitro compared with compound (B) [1] | action (local) on experimental trichophytosis, in words [2] | action against candidosis of mice compared with compounds (A) and (B) (Candida)
1 | CCCCC(O)(Cn1cncn1)C(C)(C)C=NOCC1CCCCC1 (stereo not shown) [Example 45] | better antimycotic action than compound (B) | – | –
2 | C=CCON=CC(C)(C)C(O)(CSc1ccc(Cl)cc1)Cn1cncn1 (stereo not shown) [Example 33] | better antimycotic action than compound (B) | – | –
3 | CON=CC(C)(C)C(O)(CSc1ccc(Br)cc1)Cn1ccnc1 (stereo not shown) [Example 21] | better antimycotic action than compound (B) | – | –
4 | CON=CC(C)(C)C(O)(CCc1ccc(Cl)cc1)Cn1cncn1 (stereo not shown) [Example 22] | better antimycotic action than compound (B) | good action | –
5 | CON=CC(C)(C)C(O)(C#Cc1ccc(-c2ccccc2)cc1)Cn1cncn1 (stereo not shown) [Example 12] | better antimycotic action than compound (B) | – | better action than compounds (A) and (B)
6 | CC(C)(C=O)C(O)(C#Cc1ccc(-c2ccccc2)cc1)Cn1cncn1 (stereo not shown) [Example 11] | better antimycotic action than compound (B) | – | –
7 | CCCCC(O)(Cn1cncn1)C(C)(C)C=NOCc1ccc(Cl)cc1Cl (stereo not shown) [Example 47] | better antimycotic action than compound (B) | – | –
8 | CON=CC(C)(C)C(O)(C#Cc1ccc(Cl)cc1Cl)Cn1cncn1 (stereo not shown) [Example 13] | better antimycotic action than compound (B) | – | better action than compounds (A) and (B)
9 | CON=CC(C)(C)C(O)(CSc1ccc(Br)cc1)Cn1cncn1 (stereo not shown) [Example 18] | better antimycotic action than compound (B) | good action | better action than compounds (A) and (B)
10 | CON=CC(C)(C)C(O)(Cn1cncn1)c1ccc(Cl)cc1 (stereo not shown) [Example 37] | better antimycotic action than compound (B) | good action | better action than compounds (A) and (B)
11 | CCC(O)(Cn1cncn1)C(C)(C)C=NOCc1ccc(Cl)cc1 (stereo not shown) [Example 43] | better antimycotic action than compound (B) | – | –
12 | CCCC(O)(Cn1cncn1)C(C)(C)C=NOCc1ccc(Cl)cc1Cl (stereo not shown) [Example 42] | better antimycotic action than compound (B) | – | –
13 | CON=CC(C)(C)C(O)(CSc1ccc(C(F)(F)F)c(Cl)c1)Cn1cncn1 (stereo not shown) [Example 17] | better antimycotic action than compound (B) | – | –
14 | CCCON=CC(C)(C)C(O)(Cn1cncn1)c1ccc(Cl)cc1 (stereo not shown) [Example 38] | better antimycotic action than compound (B) | good action | better action than compounds (A) and (B)
15 | CON=CC(C)(C)C(O)(COc1ccc(Cl)cc1Cl)Cn1cncn1 (stereo not shown) [Example 24] | – | – | better action than compounds (A) and (B)
16 | CC(C)(C=NOCc1ccc(Cl)cc1)C(O)(CCc1ccc(Cl)cc1)Cn1cncn1 (stereo not shown) [Example 28] | better antimycotic action than compound (B) | – | better action than compounds (A) and (B)
17 | CC(C)(C=O)C(O)(CCc1ccc(Cl)cc1)Cn1cncn1 (stereo not shown) [Example 7] | better antimycotic action than compound (B) | – | –

Row | Structure (SMILES) | antimycotic action in vitro compared with compound (B) [1] | action (local) on experimental trichophytosis, in words [2] | action against candidosis of mice compared with compounds (A) and (B) (Candida)
18 | CC(C)(C=O)C(O)(CCc1ccc(Cl)cc1)Cn1ccnc1 (stereo not shown) [Example 16] | – | – | better action than compounds (A) and (B)
19 | CC(C)(C=NOCc1ccc(Cl)cc1)C(O)(COc1ccc(Cl)c(Cl)c1)Cn1cncn1 (stereo not shown) [Example 30] | better antimycotic action than compound (B) | – | –
20 | CON=CC(C)(C)C(O)(C#Cc1ccc(Cl)cc1)Cn1cncn1 (stereo not shown) [Example 10] | better antimycotic action than compound (B) | – | better action than compounds (A) and (B)
21 | CCCCON=CC(C)(C)C(O)(CCc1ccc(Cl)cc1)Cn1cncn1 (stereo not shown) [Example 23] | better antimycotic action than compound (B) | – | better action than compounds (A) and (B)
22 | CC(C)(C=NOCC1CCCCC1)C(O)(Cn1cncn1)c1ccc(Cl)cc1 (stereo not shown) [Example 39] | – | – | better action than compounds (A) and (B)
23 | CCCC(O)(Cn1cncn1)C(C)(C)C=NOCc1ccc(Cl)cc1 (stereo not shown) [Example 41] | better antimycotic action than compound (B) | – | –
24 | CCCCC(O)(Cn1cncn1)C(C)(C)C=NOCc1ccc(Cl)cc1 (stereo not shown) [Example 46] | better antimycotic action than compound (B) | – | –
25 | C=CCON=CC(C)(C)C(O)(Cn1cncn1)c1ccc(-c2ccccc2)cc1 (stereo not shown) [Example 36] | better antimycotic action than compound (B) | – | –
26 | CON=CC(C)(C)C(O)(CSc1ccc(Cl)cc1)Cn1cncn1 (stereo not shown) [Example 32] | better antimycotic action than compound (B) | good action | better action than compounds (A) and (B)
27 | CON=CC(C)(C)C(O)(CSc1ccc(Cl)cc1)Cn1ccnc1 (stereo not shown) [Example 20] | better antimycotic action than compound (B) | good action | better action than compounds (A) and (B)
28 | CC(C)(C=O)C(O)(CSc1ccc(Br)cc1)Cn1cncn1 (stereo not shown) [Example 19] | better antimycotic action than compound (B) | – | –
29 | CCCCON=CC(C)(C)C(O)(Cn1cncn1)c1ccc(Cl)cc1 (stereo not shown) [Example 40] | – | good action | better action than compounds (A) and (B)
30 | CON=CC(C)(C)C(O)(COc1ccc(Cl)cc1)Cn1cncn1 (stereo not shown) [Example 4] | better antimycotic action than compound (B) | – | better action than compounds (A) and (B)
31 | CC(C)(C=NOCc1ccc(Cl)cc1Cl)C(O)(CCc1ccc(Cl)cc1)Cn1cncn1 (stereo not shown) [Example 29] | better antimycotic action than compound (B) | – | –
32 | CC(C)(C=O)C(O)(COc1ccc(-c2ccccc2)cc1)Cn1cncn1 (stereo not shown) [Example 5] | – | – | better action than compounds (A) and (B)
33 | CON=CC(C)(C)C(O)(Cn1cncn1)c1ccc(-c2ccccc2)cc1 (stereo not shown) [Example 35] | better antimycotic action than compound (B) | – | –
34 | CC(C)(C=O)C(O)(CCc1ccc(Cl)cc1Cl)Cn1cncn1 (stereo not shown) [Example 8] | – | – | better action than compounds (A) and (B)
